Among the test systems are A498; CCRF-CEM; COLO 205; DMS-273; HT-29; KM12; M14; MOLT-4; NCI-H460; OVCAR-3; OVCAR-8; RXF 393; SF-539; SK-MEL-5; SN12C; SR; UACC-62; MCF7; MDA-N; PC-3.
Common to all, as to test: NCI-60 cell line screen, 48 h

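The compound was tested at five concentrations on cells cultured in 96-well plates, with a 48-hour exposure period. GI50 marks 50% less growth.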 The source made the active and inactive calls. Cut-off read from the data, not from the text of the source: active = GI50 up to about 1.1 µM and inactive = higher.

As to `COC(=O)C12OCC34C(CC5C(C)C6=CC(=O)OC6=CC5(C)C3C(O)C1O)OC(=O)C(OC(C)=O)C24` (stereo not drawn), the GI50 is 21.2 µM (inactive) in the test on A498; 6.37 µM (inactive) with CCRF-CEM; 8.07 µM (inactive) in the test on COLO 205; 14.4 µM (inactive) in the test with DMS-273; 16.3 µM (inactive) in the test on HT-29; 16.4 µM (inactive) with KM12. The GI50 in the test with M14 is 14.3 µM (inactive); in the test on MOLT-4 it was 14.8 µM (inactive); with NCI-H460, 21.3 µM (inactive); in the test with OVCAR-3 it was 14.3 µM (inactive); with OVCAR-8, 16.3 µM (inactive); with RXF 393 it was 13.7 µM (inactive). In addition, the GI50 was 15.2 µM (inactive) in the test on SF-539; 15.3 µM (inactive) in the test on SK-MEL-5; 17.1 µM (inactive) with SN12C; 18.3 µM (inactive) with SR; 12.9 µM (inactive) in the test with UACC-62.
For the compound `COc1cc(C(C)O)c[n+](CCc2c[nH]c3ccccc23)c1` (stereo not drawn), the GI50 is > 100 µM (inactive) in the test on A498; > 100 µM (inactive) in the test on CCRF-CEM; 72.8 µM (inactive) with COLO 205; > 100 µM (inactive) in the test with DMS-273; 58.6 µM (inactive) with HT-29; > 100 µM (inactive) with KM12. Also, the GI50 in the test on M14 was > 100 µM (inactive); in the test with MOLT-4 it was > 100 µM (inactive); with NCI-H460, > 100 µM (inactive); with OVCAR-3 it was 66.5 µM (inactive); in the test with OVCAR-8, > 100 µM (inactive); in the test on RXF 393 it was > 100 µM (inactive). Moreover, the GI50 with SF-539, with SK-MEL-5, in the test on SN12C, in the test on SR and with UACC-62 was > 100 µM (inactive) in each case.
As to `O=[PH](O)c1cccnc1`, the GI50 in the test with A498, with CCRF-CEM, in the test with COLO 205, in the test on DMS-273, in the test on HT-29 and in the test with KM12 was > 100 µM (inactive) in each case. The GI50 in the test on M14, with MOLT-4, in the test on NCI-H460, in the test with OVCAR-3, with OVCAR-8 and in the test on RXF 393 was > 100 µM (inactive) in each case. Moreover, the GI50 in the test with SF-539, in the test with SK-MEL-5, in the test with SN12C, in the test on SR and in the test with UACC-62 was > 100 µM (inactive) each time.
Consider `CCOCC(=O)N[C@H]1CCc2cc(OC)c(OC)c(OC)c2-c2ccc(SC)c(=O)cc21`, for which the GI50 is < 0.01 µM (active) with A498; < 0.0182 µM (active) in the test with CCRF-CEM; < 0.01 µM (active) in the test on COLO 205; < 0.01 µM (active) in the test with DMS-273; < 0.01 µM (active) in the test on HT-29; < 0.01 µM (active) with KM12. For the same compound, the GI50 with M14, with MCF7, in the test with MDA-N, in the test with MOLT-4, in the test on NCI-H460 and in the test on OVCAR-3 was < 0.01 µM (active) each time. The GI50 is < 0.01 µM (active) in the test on OVCAR-8; < 0.0327 µM (active) in the test with PC-3; < 0.01 µM (active) with RXF 393; < 0.01 µM (active) with SF-539; < 0.01 µM (active) in the test with SK-MEL-5; < 0.01 µM (active) in the test on SN12C. Besides, the GI50 with SR and in the test with UACC-62 was < 0.01 µM (active) each time.
With `CC1(Br)C(=O)NC(=O)N([C@H]2C[C@H](O)[C@@H](CO)O2)C1N=[N+]=[N-]` (stereo partly drawn), the GI50 with A498, in the test on CCRF-CEM, with COLO 205, in the test with DMS-273, in the test with HT-29 and with KM12 was > 100 µM (inactive) each time. The GI50 in the test on M14, in the test with MOLT-4, with NCI-H460, with OVCAR-3, in the test with OVCAR-8 and in the test with RXF 393 was > 100 µM (inactive) each time. Also, the GI50 in the test on SF-539, with SK-MEL-5, in the test on SN12C, in the test with SR and with UACC-62 was > 100 µM (inactive) in each case.
As for `O=P1(N(CCCl)CCCl)NCCCO1` (stereo not drawn) [CYCLOPHOSPHAMIDE ANHYDROUS], the GI50 in the test on A498 was > 238 µM (inactive); in the test with CCRF-CEM, 200 µM (inactive); with COLO 205, > 250 µM (inactive); in the test on DMS-273 it was > 246 µM (inactive); in the test with HT-29, > 226 µM (inactive); in the test with KM12, > 238 µM (inactive). For the same compound, the GI50 is > 250 µM (inactive) with M14; > 250 µM (inactive) in the test with MCF7; > 250 µM (inactive) in the test on MDA-N; 249 µM (inactive) in the test on MOLT-4; > 238 µM (inactive) with NCI-H460; > 243 µM (inactive) in the test on OVCAR-3. The GI50 in the test on OVCAR-8 was > 238 µM (inactive); with PC-3, > 250 µM (inactive); with RXF 393, > 250 µM (inactive); with SF-539, > 250 µM (inactive); with SK-MEL-5 it was > 242 µM (inactive); in the test with SN12C it was > 250 µM (inactive). The GI50 in the test on SR and in the test on UACC-62 was > 250 µM (inactive) each time.

These data come from ChEMBL document CHEMBL1201862, “PubChem BioAssay data set” (2004).
